Measurements taken from patent publication US10532985B2, “Heterocycle and carbocycle derivatives having TRKA inhibitory activity” (Shionogi & Co., Ltd., priority 2014, dated 2020).

Biological target: T1, human TrkA (Homo sapiens, UniProt P04629)
T1 construct: purchased Lifetechnologies PV3144
Assay: Test Example 2: Human TrkA Inhibition Assay
Assay type: biochemical
Details: Test Example 2; human TrkA 2.5 nmol/L, ATP 500 μmol/L, 90 min at room temperature; read-out: TrkA inhibitory activity IC50
Method: After the incubation for 90 min at room temperature, ten μL of termination buffer (100 mmol/L HEPES, 40 mmol/L ethylenediaminetetraacetic acid (EDTA), 10 mmol/L magnesium chloride, 0.003 vol % Brij-35, 0.004 vol % Tween20, 1 mmol/L DTT and 0.16 vol % Coating Reagent 3) was added in each well to stop the enzyme reaction. Fluorescent intensities (FI) of phosphorylated and non-phosphorylated fluorescent substrates were measured by LabChip EZReader II (Caliper LifeSciences, Inc.) and conversion ratio (CR) was calculated by the following formula-1. The CR in the well applied with DMSO alone was used as a negative control and the CR in the well without applying TrkA was used as a positive control. The inhibitory effect of each compound on TrkA phosphorylation was calculated by the following formula-2. CR (%)=(FI of phosphorylated substrate/(FI of phosphorylated substrate+FI of non-phosphorylated substrate))×100 (Formula-1) Inhibitory effect on TrkA phosphorylation (%)=(1−(CR in compound treated well−CR in positive control)/(CR in negative control−CR in positive control))×100. (Formula-2)

T1 sequence (P04629 33-796): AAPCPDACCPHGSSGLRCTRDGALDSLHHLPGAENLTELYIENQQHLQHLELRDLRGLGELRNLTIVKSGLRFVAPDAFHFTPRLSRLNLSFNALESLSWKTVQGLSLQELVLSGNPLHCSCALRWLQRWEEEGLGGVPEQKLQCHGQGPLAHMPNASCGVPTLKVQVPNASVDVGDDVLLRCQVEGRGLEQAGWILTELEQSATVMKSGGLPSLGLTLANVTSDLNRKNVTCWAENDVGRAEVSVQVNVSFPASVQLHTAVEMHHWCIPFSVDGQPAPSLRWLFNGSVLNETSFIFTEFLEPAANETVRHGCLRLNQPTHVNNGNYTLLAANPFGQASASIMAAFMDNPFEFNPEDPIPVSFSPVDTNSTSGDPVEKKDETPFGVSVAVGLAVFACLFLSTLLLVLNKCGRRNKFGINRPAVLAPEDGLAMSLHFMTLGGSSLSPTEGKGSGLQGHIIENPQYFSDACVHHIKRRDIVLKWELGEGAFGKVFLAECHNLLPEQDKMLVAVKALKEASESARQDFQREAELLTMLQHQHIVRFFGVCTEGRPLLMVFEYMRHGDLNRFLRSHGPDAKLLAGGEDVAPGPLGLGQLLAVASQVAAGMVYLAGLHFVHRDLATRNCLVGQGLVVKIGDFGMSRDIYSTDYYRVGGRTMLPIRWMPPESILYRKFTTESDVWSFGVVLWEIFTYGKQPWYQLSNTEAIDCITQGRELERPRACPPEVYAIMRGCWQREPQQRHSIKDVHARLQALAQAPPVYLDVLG

IC50 [µM]	Compound
0.12	COC1CCC1N1C[C@@H](NC(=O)Nc2c(C)c(-c3cnn(C)c3)nn2-c2ccccc2)[C@H](c2ccc(F)c(F)c2)C1 (stereo partly drawn) [Compound I-114]
0.143	COCCN1C[C@@H](CC(=O)Nc2c(C)c(-c3cnn(C)c3)nn2-c2ccccc2)[C@H](c2ccc(F)c(F)c2)C1 (racemic) [Compound I-15]
0.46	COCC(CSC)N1C[C@@H](NC(=O)Nc2c(C)c(-c3cnn(C)c3)nn2-c2ccccc2)[C@H](c2ccc(F)c(F)c2)C1 (stereo partly drawn) [Compound I-130]

Same assay, conditions: human TrkA inhibition, Test Example 2; class symbols A/B/C; read-out: IC50_nM

Compound	IC50 [µM]
COCCN1C[C@@H](NC(=O)Nc2c(C)c(-c3cnn(C)c3)nn2-c2ccccc2)[C@H](c2cccc(-c3ccoc3)c2)C1 (racemic) [Compound I-51]	< 0.1
COCCN1C[C@@H](NC(=O)Nc2c(C)c(-c3cnn(C)c3)nn2-c2ccccc2)[C@H](c2cccc(-c3ccc(C(=O)OC)cc3)c2)C1 (racemic) [Compound I-54]	> 1
COCCN1C[C@H](NC(=O)Nc2c(C)c(-c3cnn(C)c3)nn2-c2ccccc2)[C@H](c2ccc(F)c(F)c2)C1 (racemic) [Compound I-6]	> 1
COCCN1C[C@@H](NC(=O)Nc2c(C)c(OCC(C)(C)O)nn2-c2ccccc2)[C@H](C2CCC(F)(F)CC2)C1 (racemic) [Compound I-34]	> 1
Cc1c(-c2cnn(C)c2)nn(-c2ccccc2)c1NC(=O)N[C@@H]1CCC[C@H]1c1ccccc1 (racemic) [Compound I-13]	> 1
COCCOCCN1C[C@@H](NC(=O)Nc2c(C)c(-c3cnn(C)c3)nn2-c2ccccc2)[C@H](c2ccc(F)c(F)c2)C1 [Compound I-81]	0.1 to 1
COCCN1C[C@@H](NC(=O)Nc2c(C)c(-c3cnn(C)c3)nn2-c2ccccc2)[C@H](c2cccc(C(N)=O)c2)C1 (racemic) [Compound I-21]	> 1
COCCN1C[C@@H](NC(=O)Nc2c(C)c(-c3cnn(C)c3)nn2-c2ccccc2)[C@H](C2CCC(F)(F)CC2)C1 (racemic) [Compound I-33]	0.1 to 1
Cc1c(-c2cnn(C)c2)nn(-c2ccccc2)c1NC(=O)N[C@@H]1CN(C2CCOC2)C[C@H]1c1ccc(F)c(F)c1 (stereo partly drawn) [Compound I-39]	> 1
COCCN1C[C@@H](NC(=O)C(O)c2c(C)c(-c3cnn(C)c3)nn2-c2ccccc2)[C@H](c2ccc(F)c(F)c2)C1 (stereo partly drawn) [Compound I-79]	0.1 to 1
Cc1c(-c2cnn(C)c2)nn(-c2ccccc2)c1NC(=O)NC1CNCCC1c1ccc(F)c(F)c1 (stereo not drawn) [Compound I-2]	> 1
COCCN1[C@@H]2CC[C@H]1[C@@H](c1ccc(F)c(F)c1)[C@@H]2NC(=O)Nc1c(C)c(-c2cnn(C)c2)nn1-c1ccccc1 (racemic) [Compound I-30]	> 1
COCCN1C[C@@H](NC(=O)Nc2c(C)c(-c3cnn(C)c3)nn2-c2ccccc2)[C@H](c2ccc(C(=O)O)cc2)C1 (racemic) [Compound I-83]	> 1
COCCC(=O)N1C[C@@H](NC(=O)Nc2c(C)c(-c3cnn(C)c3)nn2-c2ccccc2)[C@H](c2ccc(F)c(F)c2)C1 [Compound I-27]	> 1
COCCN1C[C@@H](NC(=O)Nc2c(C)c(-c3cnn(C)c3)nn2-c2ccccc2)[C@H](c2cccc(C(=O)OC)c2)C1 (racemic) [Compound I-19]	> 1
Cc1c(-c2cnn(C)c2)nn(-c2ccccc2)c1NC(=O)N[C@@H]1CN(Cc2ccccc2)C[C@H]1C1CCCCC1 (racemic) [Compound I-18]	> 1
COCCN1C[C@@H](N(C)C(=O)Nc2c(C)c(-c3cnn(C)c3)nn2-c2ccccc2)[C@H](c2ccccc2)C1 (racemic) [Compound I-17]	> 1
Cc1c(-c2cnn(C)c2)nn(-c2ccccc2)c1NC(=O)N[C@@H]1C[C@@H](C)N[C@H]1c1ccc(F)c(F)c1 (racemic) [Compound I-77]	> 1
COCCN1C[C@@H](NC(=O)Nc2c(C)c(-c3cnn(C)c3)nn2-c2ccccc2)[C@H](c2cccc(-c3ccncc3)c2)C1 (racemic) [Compound I-60]	> 1

More lines, now with the values ahead:

IC50 [µM]	Compound
< 0.1	COCC[C@H]1C[C@@H](NC(=O)Nc2c(C)c(-c3cnn(C)c3)nn2-c2ccccc2)[C@H](c2ccccc2)C1 [Compound I-95]
> 1	COCC(C(=O)N(C)OC)N1C[C@@H](NC(=O)Nc2c(C)c(-c3cnn(C)c3)nn2-c2ccccc2)[C@H](c2ccc(F)c(F)c2)C1 (stereo partly drawn) [Compound I-169]
> 1	Cc1c(-c2cnn(C)c2)nn(-c2ccccc2)c1NC(=O)N[C@@H]1CN(c2nn[nH]n2)C[C@H]1c1ccc(F)c(F)c1 [Compound I-148]
> 1	COCCN1C[C@@H](NC(=O)Nc2c(C)c(-c3cnn(C)c3)nn2-c2ccccc2)[C@H](c2nc3ccccc3s2)C1 (racemic) [Compound I-153]
0.1 to 1	CCOC(=O)CC1C[C@@H](NC(=O)Nc2c(C)c(-c3cnn(C)c3)nn2-c2ccccc2)[C@H](c2ccccc2)C1 (stereo partly drawn) [Compound I-124]
> 1	Cc1c(-c2cnn(C)c2)nn(-c2ccccc2)c1NC(=O)N[C@@H]1CN(Cc2nccn2C2CC2)C[C@H]1c1ccc(F)c(F)c1 [Compound I-147]
> 1	COCCN1C[C@@H](NC(=O)Nc2c(C)c(-c3cnn(C)c3)nn2-c2ccccc2)[C@H](c2ccc3oc(=O)[nH]c3c2)C1 (racemic) [Compound I-149]
0.1 to 1	COCC(CNS(C)(=O)=O)N1C[C@@H](NC(=O)Nc2c(C)c(-c3cnn(C)c3)nn2-c2ccccc2)[C@H](c2ccc(F)c(F)c2)C1 (stereo partly drawn) [Compound I-140]
< 0.1	Cc1c(-c2cnn(C)c2)nn(-c2ccccc2)c1NC(=O)N[C@@H]1CN(Cc2nccs2)C[C@H]1c1ccc(F)c(F)c1 [Compound I-97]
< 0.1	Cc1c(-c2cnn(C)c2)nn(-c2ccccc2)c1NC(=O)N[C@@H]1CN(C(C)c2ccco2)C[C@H]1c1ccc(F)c(F)c1 (stereo partly drawn) [Compound I-101]
> 1	COCC(C(=O)N(C)C)N1C[C@@H](NC(=O)Nc2c(C)c(-c3cnn(C)c3)nn2-c2ccccc2)[C@H](c2ccc(F)c(F)c2)C1 (stereo partly drawn) [Compound I-174]
> 1	COC1CC2(C1)C[C@@H](NC(=O)Nc1c(C)c(-c3cnn(C)c3)nn1-c1ccccc1)[C@H](c1ccccc1)C2 (mixture of isomers) [Compound I-170]
0.1 to 1	CCON=C1C[C@@H](NC(=O)Nc2c(C)c(-c3cnn(C)c3)nn2-c2ccccc2)[C@H](c2ccccc2)C1 [Compound I-120]
< 0.1	COCCN1C[C@@H](NC(=O)Nc2c(C)c(-c3cnn(C)c3)nn2-c2ccccc2)[C@H](c2ccc3ccccc3c2)C1 (racemic) [Compound I-104]
0.1 to 1	CNCC(COC)N1C[C@@H](NC(=O)Nc2c(C)c(-c3cnn(C)c3)nn2-c2ccccc2)[C@H](c2ccc(F)c(F)c2)C1 (stereo partly drawn) [Compound I-138]
> 1	COCC(C(=O)N(C)C)N1C[C@@H](NC(=O)Nc2c(C)c(-c3cnn(C)c3)nn2-c2ccccc2)[C@H](c2ccc(F)c(F)c2)C1 (stereo partly drawn) [Compound I-155]
0.1 to 1	COCC(CC(=O)OC)N1C[C@@H](NC(=O)Nc2c(C)c(-c3cnn(C)c3)nn2-c2ccccc2)[C@H](c2ccc(F)c(F)c2)C1 (stereo partly drawn) [Compound I-117]
0.1 to 1	COCCC1C[C@H](NC(=O)Nc2c(C)c(-c3cnn(C)c3)nn2-c2ccccc2)[C@@H](c2ccccc2)C1 (stereo partly drawn) [Compound I-123]
0.1 to 1	COCC(C(N)=O)N1C[C@@H](NC(=O)Nc2c(C)c(-c3cnn(C)c3)nn2-c2ccccc2)[C@H](c2ccc(F)c(F)c2)C1 (stereo partly drawn) [Compound I-116]
> 1	Cc1c(-c2cnn(C)c2)nn(-c2ccccc2)c1NC(=O)N[C@@H]1CN(CCCc2ccccc2)C[C@H]1c1ccc(F)c(F)c1 [I 63]
